{"source": "the NIST ThermoML archive (doi:10.1016/j.jct.2009.12.001)", "experiment": "osmotic coefficient (dimensionless); mn = molality of the nth substance listed, in mol/kg", "conditions": "323.15 K, Liquid, Vapor Pressure Osmometer", "note": "Numbers after ± are expanded uncertainties."}
{"smiles": "CCOS(=O)(=O)[O-].CC[n+]1ccccc1", "note": "[1-ethylpyridinium ethyl sulfate] + CC(C)O", "values": [{"measurement": "osmotic coefficient", "setting": "m1 = 0.0578", "value": "0.948 ± 0.012"}, {"measurement": "osmotic coefficient", "setting": "m1 = 0.1042", "value": "0.871 ± 0.013"}, {"measurement": "osmotic coefficient", "setting": "m1 = 0.2018", "value": "0.772 ± 0.014"}, {"measurement": "osmotic coefficient", "setting": "m1 = 0.3112", "value": "0.695 ± 0.016"}, {"measurement": "osmotic coefficient", "setting": "m1 = 0.3991", "value": "0.664 ± 0.017"}, {"measurement": "osmotic coefficient", "setting": "m1 = 0.5034", "value": "0.607 ± 0.018"}, {"measurement": "osmotic coefficient", "setting": "m1 = 0.6891", "value": "0.564 ± 0.02"}, {"measurement": "osmotic coefficient", "setting": "m1 = 0.9837", "value": "0.533 ± 0.02"}, {"measurement": "osmotic coefficient", "setting": "m1 = 1.287", "value": "0.506 ± 0.021"}, {"measurement": "osmotic coefficient", "setting": "m1 = 1.684", "value": "0.49 ± 0.022"}, {"measurement": "osmotic coefficient", "setting": "m1 = 2.075", "value": "0.47 ± 0.022"}, {"measurement": "osmotic coefficient", "setting": "m1 = 2.514", "value": "0.449 ± 0.023"}, {"measurement": "osmotic coefficient", "setting": "m1 = 2.915", "value": "0.432 ± 0.023"}, {"measurement": "osmotic coefficient", "setting": "m1 = 3.338", "value": "0.417 ± 0.024"}]}
{"smiles": "CCOS(=O)(=O)[O-].CC[n+]1ccccc1", "note": "[1-ethylpyridinium ethyl sulfate] + CCC(C)O", "values": [{"measurement": "osmotic coefficient", "setting": "m1 = 0.0597", "value": "0.82 ± 0.014"}, {"measurement": "osmotic coefficient", "setting": "m1 = 0.0791", "value": "0.784 ± 0.014"}, {"measurement": "osmotic coefficient", "setting": "m1 = 0.1061", "value": "0.759 ± 0.015"}, {"measurement": "osmotic coefficient", "setting": "m1 = 0.1993", "value": "0.665 ± 0.017"}, {"measurement": "osmotic coefficient", "setting": "m1 = 0.313", "value": "0.575 ± 0.019"}, {"measurement": "osmotic coefficient", "setting": "m1 = 0.4056", "value": "0.515 ± 0.021"}, {"measurement": "osmotic coefficient", "setting": "m1 = 0.5166", "value": "0.482 ± 0.022"}, {"measurement": "osmotic coefficient", "setting": "m1 = 0.7016", "value": "0.452 ± 0.023"}, {"measurement": "osmotic coefficient", "setting": "m1 = 1.006", "value": "0.429 ± 0.023"}, {"measurement": "osmotic coefficient", "setting": "m1 = 1.291", "value": "0.421 ± 0.024"}, {"measurement": "osmotic coefficient", "setting": "m1 = 1.73", "value": "0.406 ± 0.024"}, {"measurement": "osmotic coefficient", "setting": "m1 = 2.104", "value": "0.392 ± 0.025"}, {"measurement": "osmotic coefficient", "setting": "m1 = 2.512", "value": "0.383 ± 0.025"}, {"measurement": "osmotic coefficient", "setting": "m1 = 2.915", "value": "0.378 ± 0.025"}, {"measurement": "osmotic coefficient", "setting": "m1 = 3.294", "value": "0.374 ± 0.025"}]}
{"smiles": "CCOS(=O)(=O)[O-].CC[n+]1ccccc1", "note": "[1-ethylpyridinium ethyl sulfate] + CCCCCO", "values": [{"measurement": "osmotic coefficient", "setting": "m1 = 0.0539", "value": "0.761 ± 0.015"}, {"measurement": "osmotic coefficient", "setting": "m1 = 0.0802", "value": "0.679 ± 0.017"}, {"measurement": "osmotic coefficient", "setting": "m1 = 0.1082", "value": "0.605 ± 0.018"}, {"measurement": "osmotic coefficient", "setting": "m1 = 0.2024", "value": "0.521 ± 0.021"}, {"measurement": "osmotic coefficient", "setting": "m1 = 0.3151", "value": "0.465 ± 0.022"}, {"measurement": "osmotic coefficient", "setting": "m1 = 0.4053", "value": "0.435 ± 0.023"}, {"measurement": "osmotic coefficient", "setting": "m1 = 0.511", "value": "0.416 ± 0.024"}, {"measurement": "osmotic coefficient", "setting": "m1 = 0.7996", "value": "0.376 ± 0.025"}, {"measurement": "osmotic coefficient", "setting": "m1 = 1.105", "value": "0.359 ± 0.026"}, {"measurement": "osmotic coefficient", "setting": "m1 = 1.414", "value": "0.355 ± 0.026"}, {"measurement": "osmotic coefficient", "setting": "m1 = 1.719", "value": "0.347 ± 0.026"}, {"measurement": "osmotic coefficient", "setting": "m1 = 2.23", "value": "0.335 ± 0.026"}, {"measurement": "osmotic coefficient", "setting": "m1 = 2.724", "value": "0.332 ± 0.026"}, {"measurement": "osmotic coefficient", "setting": "m1 = 3.206", "value": "0.33 ± 0.027"}]}
{"smiles": "CCOS(=O)(=O)[O-].CC[n+]1ccccc1", "note": "[1-ethylpyridinium ethyl sulfate] + CCCCO", "values": [{"measurement": "osmotic coefficient", "setting": "m1 = 0.0564", "value": "0.758 ± 0.015"}, {"measurement": "osmotic coefficient", "setting": "m1 = 0.0836", "value": "0.694 ± 0.016"}, {"measurement": "osmotic coefficient", "setting": "m1 = 0.1146", "value": "0.652 ± 0.017"}, {"measurement": "osmotic coefficient", "setting": "m1 = 0.2084", "value": "0.578 ± 0.019"}, {"measurement": "osmotic coefficient", "setting": "m1 = 0.2995", "value": "0.536 ± 0.02"}, {"measurement": "osmotic coefficient", "setting": "m1 = 0.3996", "value": "0.508 ± 0.021"}, {"measurement": "osmotic coefficient", "setting": "m1 = 0.5015", "value": "0.495 ± 0.022"}, {"measurement": "osmotic coefficient", "setting": "m1 = 0.7046", "value": "0.467 ± 0.022"}, {"measurement": "osmotic coefficient", "setting": "m1 = 0.9934", "value": "0.44 ± 0.023"}, {"measurement": "osmotic coefficient", "setting": "m1 = 1.289", "value": "0.429 ± 0.023"}, {"measurement": "osmotic coefficient", "setting": "m1 = 1.688", "value": "0.418 ± 0.024"}, {"measurement": "osmotic coefficient", "setting": "m1 = 2.094", "value": "0.402 ± 0.024"}, {"measurement": "osmotic coefficient", "setting": "m1 = 2.493", "value": "0.388 ± 0.025"}, {"measurement": "osmotic coefficient", "setting": "m1 = 2.886", "value": "0.38 ± 0.025"}, {"measurement": "osmotic coefficient", "setting": "m1 = 3.301", "value": "0.374 ± 0.025"}]}
{"smiles": "CCOS(=O)(=O)[O-].CC[n+]1ccccc1", "note": "[1-ethylpyridinium ethyl sulfate] + CCCO", "values": [{"measurement": "osmotic coefficient", "setting": "m1 = 0.0584", "value": "0.853 ± 0.013"}, {"measurement": "osmotic coefficient", "setting": "m1 = 0.073", "value": "0.824 ± 0.014"}, {"measurement": "osmotic coefficient", "setting": "m1 = 0.1074", "value": "0.768 ± 0.015"}, {"measurement": "osmotic coefficient", "setting": "m1 = 0.2108", "value": "0.684 ± 0.016"}, {"measurement": "osmotic coefficient", "setting": "m1 = 0.3057", "value": "0.635 ± 0.018"}, {"measurement": "osmotic coefficient", "setting": "m1 = 0.4128", "value": "0.603 ± 0.018"}, {"measurement": "osmotic coefficient", "setting": "m1 = 0.5105", "value": "0.586 ± 0.019"}, {"measurement": "osmotic coefficient", "setting": "m1 = 0.7918", "value": "0.561 ± 0.02"}, {"measurement": "osmotic coefficient", "setting": "m1 = 1.108", "value": "0.547 ± 0.02"}, {"measurement": "osmotic coefficient", "setting": "m1 = 1.347", "value": "0.54 ± 0.02"}, {"measurement": "osmotic coefficient", "setting": "m1 = 1.697", "value": "0.528 ± 0.021"}, {"measurement": "osmotic coefficient", "setting": "m1 = 2.217", "value": "0.505 ± 0.021"}, {"measurement": "osmotic coefficient", "setting": "m1 = 2.727", "value": "0.487 ± 0.022"}, {"measurement": "osmotic coefficient", "setting": "m1 = 3.22", "value": "0.474 ± 0.022"}]}
